Where a SMILES comes first, the peptide text is derived from it. [ ]: non-standard residue; d: D form.
Columns and labels:
MPAO1-ΔmutS [1] = assay: In vitro adaptive evolution (serial passaging) with MIC determination; type: cell-based, Pseudomonas aeruginosa; conditions: for cross-resistance to antibiotics induced by treatment / cross-resistance to peptides induced by treatment: MPAO1-ΔmutS evolved in the named drug; for resistance acquisition on repeated exposure to the drug: MPAO1-ΔmutS, monotherapy
Method: (§1) MICs were determined via microbroth dilution assay in 96-well culture plates with 2-fold serial dilutions of tested antibiotic in Mueller-Hinton (cation-adjusted) broth, inoculated with 50 μL of 2.75×10^5 CFU/mL of each bacterial strain and incubated at 37° C., 200 rpm for 24 hours. MIC experiments were performed using biological triplicates.
(§2) Serial passaging of bacterial strains was performed in 96-well culture plates with 2-fold serial dilutions of antibiotic in MH broth, inoculated with 50 μL 2.75×10^5 CFU/mL of each strain and incubated at 37° C., 200 rpm for 24 hours. […] The bacteria were then serially passaged in the same antibiotic and MIC determined for all antibiotics (aztreonam, ciprofloxacin, D-CONGA, D-CONGA-Q7, polymyxin B). See Antimicrobial susceptibility testing section. The bacteria were serially passaged a total of 10 times.
(§3) All resistance acquisition data was analyzed in units of fold-change to normalize for differences in starting MIC across strains. Fold-change in MIC data for all strains and treatment groups was natural log-transformed and simple linear regression was performed considering each replicate fold-change value as an individual point. Slope, standard error of slope, and total number of values of each treatment group of interest were analyzed via unpaired t-test (ΔmutS vs WT) or ordinary one-way ANOVA (cross-resistance acquisition of ΔmutS+AB vs −AB vs WT), and α-values were corrected for multiple comparisons using the Bonferroni method. Differences in estimated mutation rate across treatment groups were determined via ordinary one-way ANOVA (Brown-Forsythe test). For all statistical tests, p<0.05 was considered significant. All figures were created and statistical tests were done using GraphPad Prism 9.3.1.

MPAO1 [2] = assay: as above; type: cell-based, Pseudomonas aeruginosa
Method: as §1, §2, §3

[3] = system: drug-resistant clinical isolates of Staphylococcus aureus, Klebsiella pneumoniae, Acinetobacter baumannii, and P. aeruginosa; conditions: in vitro and in vivo, reference 23; cited from earlier work
[4] = system: wild type P. aeruginosa (PAO1); conditions: reference 23; cited from earlier work
MPAO1 [5] = assay: microbe, parasite or virus in culture; type: cell-based, Pseudomonas aeruginosa; conditions: strain MPAO1
Method: (§4) MIC experiments were performed using biological triplicates.

PAO1 = assay: microbe, parasite or virus in culture; type: cell-based, Pseudomonas aeruginosa; conditions: strain PAO1
Method: as §4

MPAO1-ΔmutL [6] = assay: MIC, microbroth dilution assay; type: cell-based, Pseudomonas aeruginosa; conditions: strain ΔmutL
Method: as §4

MPAO1-ΔmutS [7] = assay: MIC, microbroth dilution assay; type: cell-based, Pseudomonas aeruginosa; conditions: strain ΔmutS
Method: as §4

MPAO1-ΔmutL [8] = assay: In vitro adaptive evolution (serial passaging) with MIC determination; type: cell-based, Pseudomonas aeruginosa; conditions: MPAO1-ΔmutL, monotherapy
Method: as §1, §2, §3

[9] = system: predicted MMR-deficient clinical isolates; assay: In vitro adaptive evolution of clinical isolates from pwCF; type: cell-based, Pseudomonas aeruginosa; conditions: isolates CFP6_Pa2, CFP8_Pa1 and CFP9_Pa1
Method: as §4

[10] = MPAO1-ΔmutS evolved in AZ + COL
[11] = MPAO1-ΔmutS evolved in AZ + D-CONGA
[12] = MPAO1-ΔmutS evolved in AZ + D-CONGA-Q7
[13] = MPAO1-ΔmutS evolved in D-CONGA-Q7
[14] = MPAO1-ΔmutS passaged with No Antibiotic (Table 4)
[15] = MPAO1-ΔmutS passaged with No Antibiotic (Table 8)
[16] = MPAO1 evolved in AZ + D-CONGA-Q7
[17] = MPAO1 passaged with No Antibiotic (Table 4)
[18] = MPAO1 passaged with No Antibiotic (Table 8)

Compound | fold-change relative to starting MIC before treatment (MPAO1-ΔmutS [1]; MPAO1-ΔmutS evolved in AZ) | fold-change relative to starting MIC before treatment (MPAO1-ΔmutS [1]; [10]) | fold-change relative to starting MIC before treatment (MPAO1-ΔmutS [1]; [11]) | fold-change relative to starting MIC before treatment (MPAO1-ΔmutS [1]; [12]) | fold-change relative to starting MIC before treatment (MPAO1-ΔmutS [1]; MPAO1-ΔmutS evolved in COL) | fold-change relative to starting MIC before treatment (MPAO1-ΔmutS [1]; MPAO1-ΔmutS evolved in Chl) | fold-change relative to starting MIC before treatment (MPAO1-ΔmutS [1]; MPAO1-ΔmutS evolved in D-CONGA) | fold-change relative to starting MIC before treatment (MPAO1-ΔmutS [1]; [13]) | cross-resistance to antibiotics induced by treatment (MPAO1-ΔmutS [1]) | cross-resistance to peptides induced by treatment (MPAO1-ΔmutS [1]) | fold-change relative to starting MIC before treatment (MPAO1-ΔmutS [1]; [14]) | fold-change relative to starting MIC before treatment (MPAO1-ΔmutS [1]; [15]) | resistance acquisition on repeated exposure to the drug (MPAO1-ΔmutS [1]) | fold-change relative to starting MIC before treatment (MPAO1 [2]; MPAO1 evolved in AZ) | fold-change relative to starting MIC before treatment (MPAO1 [2]; MPAO1 evolved in AZ + COL) | fold-change relative to starting MIC before treatment (MPAO1 [2]; MPAO1 evolved in AZ + D-CONGA) | fold-change relative to starting MIC before treatment (MPAO1 [2]; [16]) | fold-change relative to starting MIC before treatment (MPAO1 [2]; MPAO1 evolved in COL) | fold-change relative to starting MIC before treatment (MPAO1 [2]; [17]) | fold-change relative to starting MIC before treatment (MPAO1 [2]; [18]) | other results
CC(C)C[C@@H](NC(=O)[C@@H](CCC(N)=O)NC(=O)[C@@H](CCCNC(=N)N)NC(=O)[C@@H](CCCNC(=N)N)NC(=O)[C@@H](C)NC(=O)[C@@H](Cc1c[nH]c2ccccc12)NC(=O)[C@@H](CCCNC(=N)N)NC(=O)[C@H](N)CCCNC(=N)N)C(=O)N[C@H](C)C(=O)N[C@H](Cc1ccccc1)C(=O)N[C@H](C)C(=O)N[C@H](Cc1ccccc1)C(=O)N[C@H](CCCNC(=N)N)C(=O)N[C@H](CCCNC(=N)N)C(N)=O [D-CONGA-Q7] (H-[dR][dR][dW][dA][dR][dR][dQ][dL][dA][dF][dA][dF][dR][dR]-NH2; N-terminus and C-terminus assumed) | 0.42 | 2 | 0.67 | 0.67 | 1.75 | 1 | 2.67 | 3.33 | failed to induce marked cross-resistance to antibiotics | induced cross-resistance to other peptides | 1 | 1.38 | developed resistance | 1.2 | 1 | 1.2 | 1.2 | 1 | 1 | 1 | fold-change relative to starting MIC before treatment (MPAO1 [2]; MPAO1 evolved in D-CONGA): 1; fold-change relative to starting MIC before treatment (MPAO1 [2]; MPAO1 evolved in D-CONGA-Q7): 1.33; efficacy against drug-resistant clinical isolates [3]: efficacious in vitro and in vivo; induction of resistance [4]: has not been observed
CC(C)C[C@@H](NC(=O)[C@@H](CCCNC(=N)N)NC(=O)[C@@H](CCCNC(=N)N)NC(=O)[C@@H](C)NC(=O)[C@@H](Cc1c[nH]c2ccccc12)NC(=O)[C@@H](CCCNC(=N)N)NC(=O)[C@H](N)CCCNC(=N)N)C(=O)N[C@H](C)C(=O)N[C@H](Cc1ccccc1)C(=O)N[C@H](C)C(=O)N[C@H](Cc1ccccc1)C(=O)N[C@H](CCCNC(=N)N)C(=O)N[C@H](CCCNC(=N)N)C(N)=O [D-CONGA] (H-[dR][dR][dW][dA][dR][dR][dL][dA][dF][dA][dF][dR][dR]-NH2; N-terminus and C-terminus assumed) | 0.33 | 1.3 | 0.43 | 0.67 | 3 | 1 | 2 | 3.33 | failed to induce marked cross-resistance to antibiotics | induced cross-resistance to other peptides | 1 | 1 | developed resistance | 1.2 | 1 | 1.2 | 1.2 | 1 | 2 | 1 | fold-change relative to starting MIC before treatment (MPAO1 [2]; MPAO1 evolved in D-CONGA): 1; fold-change relative to starting MIC before treatment (MPAO1 [2]; MPAO1 evolved in D-CONGA-Q7): 1.4; efficacy against drug-resistant clinical isolates [3]: efficacious in vitro and in vivo; induction of resistance [4]: has not been observed
Colistin |  | 1.67 |  |  | 20 |  |  |  | failed to induce marked cross-resistance to antibiotics | induced cross-resistance to other peptides | 1 | 1 | Rapid acquisition of resistance |  | 2.67 |  |  | 2 | 1 | 1 | MIC, average of triplicates (MPAO1 [5]): 2 µg/mL; MIC, average of triplicates (PAO1): 2 µg/mL; MIC, average of triplicates (MPAO1-ΔmutL [6]): 2 µg/mL; MIC, average of triplicates (MPAO1-ΔmutS [7]): 2 µg/mL; resistance acquisition on repeated exposure to the drug (MPAO1-ΔmutL [8]): rapid resistance acquisition; Average MIC at end point (MPAO1-ΔmutS [1]; [10]): 3 µg/mL; Average MIC at end point (MPAO1-ΔmutS [1]; MPAO1-ΔmutS evolved in COL): 53 µg/mL; Average MIC at end point (MPAO1-ΔmutS [1]; [14]): 2 µg/mL; Average MIC at end point (MPAO1-ΔmutS [1]; [15]): 2 µg/mL; resistance acquisition on repeated exposure to the drug (MPAO1 [2]; MPAO1, monotherapy, more slowly than MPAO1-ΔmutS): eventually displayed an elevated minimum inhibitory concentration (MIC); Average MIC at end point (MPAO1 [2]; MPAO1 evolved in AZ + COL): 5 µg/mL; Average MIC at end point (MPAO1 [2]; MPAO1 evolved in COL): 4 µg/mL; Average MIC at end point (MPAO1 [2]; [17]): 2 µg/mL; Average MIC at end point (MPAO1 [2]; [18]): 2 µg/mL; resistance acquisition under monotherapy [9]: rapidly acquired resistance
